Laboratory results taken from patent EP4722201A1, “3-PHENYLISOXAZOLINE-5-CARBOXAMIDE COMPOUND, AND PREPARATION METHOD THEREFOR, HERBICIDAL COMPOSITION THEREOF AND USE THEREOF” (Jiangsu Flag Chemical Industry Co., Ltd, priority 2023, dated 2024).

Experiments:
Type in all cases: in vivo
Eclipta prostrata = experiment: Indoor herbicide activity determination, post-emergence (stem and leaf spray at 2-4 leaf stage); conditions: 504 h, 60 g a.i./ha, determined 21 days later, read-out: Inhibition rate of fresh weight, Eclipta prostrata
How it was run: (§1)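 Potted weeds in sandy nutrient soil (pH 6.1, 1% organic matter) were grown in a constant-temperature illuminated room to the 2-4 leaf stage, then given a stem-and-leaf spray. Plants went back to the culture room once the spray had dried in shade. At 21 days, fresh weight inhibition % was calculated relative to untreated control plants.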

Digitaria sanguinalis = experiment: as above; conditions: 504 h, 60 g a.i./ha, determined 21 days later, read-out: Inhibition rate of fresh weight, Digitaria sanguinalis
How it was run: as §1

Cyperus iria = experiment: as above; conditions: 504 h, 60 g a.i./ha, determined 21 days later, read-out: Inhibition rate of fresh weight, Cyperus iria
How it was run: as §1

Eleusine indica = experiment: Indoor herbicide activity determination, Seed Treatment; pre-emergence (soil spray); conditions: Dosage 240 g a.i./ha
How it was run: (§2)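 Readout is percent inhibition of fresh weight relative to control plants, determined 21 days after treatment. Soil was sprayed one day after sowing, in a spray tower at 300 mm height and 390 mL/min nozzle flow, onto sandy soil of pH 6.1 with 1% organic matter.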

Lolium multiflorum = experiment: as above; conditions: Dosage 240 g a.i./ha
How it was run: as §2

Alopecurus japonicus = experiment: as above; conditions: Dosage 240 g a.i./ha
How it was run: as §2

Leptochloa chinensis = experiment: as above; conditions: Dosage 240 g a.i./ha
How it was run: as §2

Alopecurus myosuroides = experiment: as above; conditions: Dosage 240 g a.i./ha
How it was run: as §2

| Structure (SMILES) | inhibition at 60 g/ha (Eclipta prostrata) [%] | inhibition at 60 g/ha (Digitaria sanguinalis) [%] | inhibition at 60 g/ha (Cyperus iria) [%] | Herbicidal activities, Eleusine indica (inhibition rate class) (Eleusine indica) | Herbicidal activities, Lolium multiflorum (inhibition rate class) (Lolium multiflorum) | Herbicidal activities, Alopecurus japonicus (inhibition rate class) (Alopecurus japonicus) | Herbicidal activities, Leptochloa chinensis (inhibition rate class) (Leptochloa chinensis) | Herbicidal activities, Alopecurus myosuroides (inhibition rate class) (Alopecurus myosuroides) |
| --- | --- | --- | --- | --- | --- | --- | --- | --- |
| COC(=O)[C@H]1C[C@@H](NC(=O)C2(C(F)(F)F)CC(c3cc(F)cc(Cl)c3)=NO2)C1 (mixture of isomers) [I-225] | 60 to 80 | 80 to 100 | 80 to 100 | A (A indicates that the inhibition rate was greater than or equal to 80% to 100%) | A (A indicates that the inhibition rate was greater than or equal to 80% to 100%) | A (A indicates that the inhibition rate was greater than or equal to 80% to 100%) | A (A indicates that the inhibition rate was greater than or equal to 80% to 100%) | A (A indicates that the inhibition rate was greater than or equal to 80% to 100%) |
| O=C(N[C@H]1C[C@@H](C(=O)O)C1)C1(C(F)(F)F)CC(c2cc(Cl)cc(Cl)c2)=NO1 (relative stereo) [I-229] | 60 to 80 | 80 to 100 | 80 to 100 | A (A indicates that the inhibition rate was greater than or equal to 80% to 100%) | A (A indicates that the inhibition rate was greater than or equal to 80% to 100%) | A (A indicates that the inhibition rate was greater than or equal to 80% to 100%) | A (A indicates that the inhibition rate was greater than or equal to 80% to 100%) | A (A indicates that the inhibition rate was greater than or equal to 80% to 100%) |
| COC(=O)[C@H]1C[C@@H](NC(=O)C2(C(F)(F)F)CC(c3cc(Cl)cc(Cl)c3)=NO2)C1 (relative stereo) [I-231] | 60 to 80 | 80 to 100 | 80 to 100 | A (A indicates that the inhibition rate was greater than or equal to 80% to 100%) | A (A indicates that the inhibition rate was greater than or equal to 80% to 100%) | A (A indicates that the inhibition rate was greater than or equal to 80% to 100%) | A (A indicates that the inhibition rate was greater than or equal to 80% to 100%) | A (A indicates that the inhibition rate was greater than or equal to 80% to 100%) |
| O=C(N[C@H]1C[C@@H](C(=O)O)C1)C1(C(F)(F)F)CC(c2cc(F)cc(C(F)(F)F)c2)=NO1 (relative stereo) [I-241] | 60 to 80 | 80 to 100 | 80 to 100 | A (A indicates that the inhibition rate was greater than or equal to 80% to 100%) | A (A indicates that the inhibition rate was greater than or equal to 80% to 100%) | A (A indicates that the inhibition rate was greater than or equal to 80% to 100%) | A (A indicates that the inhibition rate was greater than or equal to 80% to 100%) | A (A indicates that the inhibition rate was greater than or equal to 80% to 100%) |
| COC(=O)[C@H]1C[C@@H](NC(=O)C2(C(F)(F)F)CC(c3cc(F)cc(C(F)(F)F)c3)=NO2)C1 (relative stereo) [I-243] | 60 to 80 | 80 to 100 | 80 to 100 | A (A indicates that the inhibition rate was greater than or equal to 80% to 100%) | A (A indicates that the inhibition rate was greater than or equal to 80% to 100%) | A (A indicates that the inhibition rate was greater than or equal to 80% to 100%) | A (A indicates that the inhibition rate was greater than or equal to 80% to 100%) | A (A indicates that the inhibition rate was greater than or equal to 80% to 100%) |
| O=C(N[C@H]1C[C@@H](C(=O)O)C1)C1(C(F)(F)F)CC(c2cc(Cl)cc(C(F)(F)F)c2)=NO1 (relative stereo) [I-245] | 60 to 80 | 80 to 100 | 80 to 100 | A (A indicates that the inhibition rate was greater than or equal to 80% to 100%) | A (A indicates that the inhibition rate was greater than or equal to 80% to 100%) | A (A indicates that the inhibition rate was greater than or equal to 80% to 100%) | A (A indicates that the inhibition rate was greater than or equal to 80% to 100%) | A (A indicates that the inhibition rate was greater than or equal to 80% to 100%) |
| O=C(N[C@H]1C[C@@H](C(=O)O)C1)C1(C(F)(F)F)CC(c2cc(F)cc(OC(F)(F)F)c2)=NO1 (relative stereo) [I-249] | 60 to 80 | 80 to 100 | 80 to 100 | A (A indicates that the inhibition rate was greater than or equal to 80% to 100%) | A (A indicates that the inhibition rate was greater than or equal to 80% to 100%) | A (A indicates that the inhibition rate was greater than or equal to 80% to 100%) | A (A indicates that the inhibition rate was greater than or equal to 80% to 100%) | A (A indicates that the inhibition rate was greater than or equal to 80% to 100%) |
| COC(=O)[C@H]1C[C@@H](NC(=O)C2(C(F)(F)F)CC(c3cc(F)cc(OC(F)(F)F)c3)=NO2)C1 (relative stereo) [I-251] | 60 to 80 | 80 to 100 | 80 to 100 | A (A indicates that the inhibition rate was greater than or equal to 80% to 100%) | A (A indicates that the inhibition rate was greater than or equal to 80% to 100%) | A (A indicates that the inhibition rate was greater than or equal to 80% to 100%) | A (A indicates that the inhibition rate was greater than or equal to 80% to 100%) | A (A indicates that the inhibition rate was greater than or equal to 80% to 100%) |
| O=C(N[C@H]1C[C@@H](C(=O)O)C1)C1(C(F)(F)F)CC(c2cccc(F)c2)=NO1 (relative stereo) [I-268] | 40 to 60 | 80 to 100 | 80 to 100 | A (A indicates that the inhibition rate was greater than or equal to 80% to 100%) | A (A indicates that the inhibition rate was greater than or equal to 80% to 100%) | A (A indicates that the inhibition rate was greater than or equal to 80% to 100%) | A (A indicates that the inhibition rate was greater than or equal to 80% to 100%) | A (A indicates that the inhibition rate was greater than or equal to 80% to 100%) |
| COC(=O)[C@H]1C[C@@H](NC(=O)C2(C(F)(F)F)CC(c3cccc(F)c3)=NO2)C1 (relative stereo) [I-270] | 40 to 60 | 80 to 100 | 80 to 100 | A (A indicates that the inhibition rate was greater than or equal to 80% to 100%) | A (A indicates that the inhibition rate was greater than or equal to 80% to 100%) | A (A indicates that the inhibition rate was greater than or equal to 80% to 100%) | A (A indicates that the inhibition rate was greater than or equal to 80% to 100%) | A (A indicates that the inhibition rate was greater than or equal to 80% to 100%) |
| COC(=O)[C@H]1C[C@@H](NC(=O)C2(C(C)(F)F)CC(c3cc(F)cc(F)c3)=NO2)C1 (relative stereo) [I-347] | 40 to 60 | 60 to 80 | 80 to 100 | A (A indicates that the inhibition rate was greater than or equal to 80% to 100%) | A (A indicates that the inhibition rate was greater than or equal to 80% to 100%) | A (A indicates that the inhibition rate was greater than or equal to 80% to 100%) | A (A indicates that the inhibition rate was greater than or equal to 80% to 100%) | A (A indicates that the inhibition rate was greater than or equal to 80% to 100%) |
